The source of these data is patent US5464617A, “β-lactam compounds” (Hoffmann-La Roche Inc., priority 1994, dated 1995).

In one test the test system is E. coli 1346. The test is described as follows: Antibacterial activity of the products per se, serial dilution method in liquid medium (Test E). It counts as cell-based. As to conditions: Table 4; test E, product per se. The source says:
The antibacterial activity of the products per se is illustrated on the basis of Table 3 hereinafter, the minimum inhibitory concentration […] in vitro against E. coli 1346 being determined using the serial dilution method in liquid medium: […]

For test [1], the system named is Citrobacter freundii 1982. In words: MIC in vitro of a 1:4 combination of ceftriaxone with a compound of formula I (Test D). The note with it: Table 4; test D, 1:4 combination of ceftriaxone with the compound. It counts as cell-based. The method, then: The minimum inhibitory concentration in vitro ([…]) of a 1:4 combination of ceftriaxone with a compound of formula I against Citrobacter freundii 1982 was measured and compiled in Table 2 hereinafter.

In brackets after ≈: the same amount, converted by molar mass. Counter-ions that a name gives are not always drawn. Where only a bound is given, the exact number is not on record here.

For `Cc1nnc(SCC2=C(C(=O)O)N3C(=O)[C@H]4NC[C@@H](S2)[C@H]43)s1` [40(h), (1aS,3aR,6bS)-5-[5-Methyl-1,3,4-thiadiazol-2-ylsulphanylmethyl]-1-oxo-4-thia-1,1a,2,3,3a,6b-hexahydro-2,6a-diazacyclobut[cd]indene-6-carboxylic acid], in the test with E. coli 1346, the “MIC E. coli 1346 (E)” value turned out to be 8 µg/mL (≈ 22.4 µM). Further, in test [1], the “MIC C. freundii 1982 (D)” value worked out at 0.5 µg/mL.

On to `O=C(O)C1=C(Sc2ccncc2)C[C@@H]2CN[C@@H]3C(=O)N1[C@H]23` [Example 2(d), (1aS,3aR,6bR)-1-oxo-5-(pyridin-4-ylsulphanyl)-1a,2,3,3a,4,6b-hexahydro-1H-2,6a-diazacyclobut[cd]indene-6-carboxylic acid trifluoroacetate], for which, in the test with E. coli 1346, the “MIC E. coli 1346 (E)” value was > 32 µg/mL. In addition, the “MIC C. freundii 1982 (D)” value in test [1] is 64 µg/mL.

As for `O=C(NCC(F)(F)F)OCC1=C(C(=O)O)N2C(=O)[C@@H]3[C@H]2[C@H](C1)CN3C(=O)C(F)(F)F` [92(b), (1aS,3aR,6bR)-1-Oxo-2-trifluoroacetyl-5-(2,2,2-trifluoroethylcarbamoyloxymethy)-1a,2,3,3a,4,6b-hexahydro-1H-2,6a-diazacyclobut[cd]indene-6-carboxylicacid sodium salt], in the test on E. coli 1346, the “MIC E. coli 1346 (E)” value was 4 µg/mL. Further, the “MIC C. freundii 1982 (D)” value in test [1] came to 2 µg/mL.

`COC(=O)CN1C[C@H]2CC(COC(N)=O)=C(C(=O)O)N3C(=O)[C@@H]1[C@@H]23` [59(b), (1aS,3aR,6bR)-5-Carbamoyloxymethyl-2-methoxycarbonylmethyl-1-oxo-1a,2,3,3a,4,6b-hexahydro-1H-2,6a-diazacyclobut[cd]indene-6-carboxylic acid sodium salt]: in the test with E. coli 1346, the “MIC E. coli 1346 (E)” value amounted to 2 µg/mL. For the same molecule, in test [1], the “MIC C. freundii 1982 (D)” value amounted to 0.5 µg/mL.

For the molecule `CNC(=O)OCC1=C(C(=O)O)N2C(=O)[C@@H]3[C@H]2[C@H](C1)CN3C(C)=O` [98(a), (1aS,3aR,6bR)-2-Acetyl-5-methylcarbamoyloxymethyl-1-oxo-1a,2,3,3a,4,6b-hexahydro-1H-2,6a-diazacyclobut[cd]indene-6-carboxylic acid sodium salt], the “MIC E. coli 1346 (E)” value against E. coli 1346 is 2 µg/mL. The “MIC C. freundii 1982 (D)” value in test [1] turned out to be 1 µg/mL.

With `CC(=O)N1C[C@H]2CC(CNS(C)(=O)=O)=C(C(=O)O)N3C(=O)[C@@H]1[C@@H]23` [88(a), (1aS,3aR,6bR)-2-Acetyl-5-methylsulphonylaminomethyl-1-oxo-1a,2,3,3a,4,6b-hexahydro-1H-2,6a-diazacyclobut[cd]indene-6-carboxylic acid sodium salt], the “MIC E. coli 1346 (E)” value in the test on E. coli 1346 came out at 16 µg/mL. In addition, the “MIC C. freundii 1982 (D)” value in test [1] stood at 4 µg/mL.

Take `NC(=O)OCC1=C(C(=O)O)N2C(=O)[C@@H]3[C@H]2[C@H](C1)CN3C(=O)Cc1cccs1` [58(b), (1aS, 3aR,6bR)-5-Carbamoyloxymethyl-1-oxo-2-(thiophen-2-yl-acetyl)-1a,2,3,3a,4,6b-hexahydro-1H-2,6a-diazacyclobut[cd]indene-6-carboxylic acid sodium salt]: the “MIC E. coli 1346 (E)” value against E. coli 1346 turned out to be 16 µg/mL. Also, the “MIC C. freundii 1982 (D)” value in test [1] came to 0.5 µg/mL.

For `Cn1nc[n+](C)c1CSC1=C(C(=O)[O-])N2C(=O)[C@@H]3[C@H]2[C@H](C1)CN3C(=O)C(F)(F)F` [3(an), (1aS,3aR,6bR)-5-[(1,4-Dimethyl-1H-1,2,4-triazol-5-ylio)methylsulphanyl]-1-oxo-2-trifluoroacetyl-1a,2,3,3a,4,6b-hexahydro-1H-2,6a-diazacyclobut[cd]indene-6-carboxylate], in the test on E. coli 1346, the “MIC E. coli 1346 (E)” value came out at 32 µg/mL (≈ 74.2 µM). The “MIC C. freundii 1982 (D)” value in test [1] worked out at 32 µg/mL.

On to `CC(=O)N1C[C@H]2SC(CSc3nnc(C)s3)=C(C(=O)O)N3C(=O)[C@@H]1[C@@H]23` [42(a), (1aS,3aR,6bS)-2-Acetyl-5-(5-methyl-1,3,4-thiadiazol-2-ylsulphanylmethyl)-1-oxo-4-thia-1,1a,2,3,3a,6b-hexahydro-2,6a-diazacyclobut[cd]indene-6-carboxylic acid sodium salt], for which the “MIC E. coli 1346 (E)” value in the test on E. coli 1346 amounted to 2 µg/mL. Moreover, the “MIC C. freundii 1982 (D)” value in test [1] came to 1 µg/mL.
